Data reported in patent publication US20110306606A1, “NOVEL 2,6-SUBSTITUTED-3-NITROPYRIDINE DERIVATIVE, METHOD FOR PREPARING SAME, AND PHARMACEUTICAL COMPOSITION INCLUDING SAME” (priority 2008, published 2011).

Each compound was assayed on Osteoblasts (Calvarial cells) (assay: Cytotoxicity test (MTT)). Conditions: 1 μM compound, 72 hours, in comparison with vehicle control.
Description: For the preparation of osteoblasts (Calvarial cells), the calvaria were aseptically dissected from 1 to 2-day-old neonatal ICR mice and subjected to continuous reaction with a 0.2% collagenase solution to separate osteoblasts. The cell-suspended supernatant was centrifuged to recover osteoblasts which were grown to full confluence in an α-MEM supplemented with 10% FBS and then diluted to a desired cell density for use in the experiment.
Cytotoxicity of the compounds of the present invention was evaluated by carrying out the experiment described below.
The vehicle control group was established to contain 0.2% DMSO. 100 μL/well of the diluted drugs were dispensed into 96-well plates to which osteoblasts (calvarial cells) prepared in Experimental Example 1 were then added at a density of 1.0×10^4 cells/100 μL/well. Here, the final compound concentration in the cell culture was 1 μM, and the vehicle control group contained 0.1% DMSO. The cells were cultured in a 5% CO2 inhibitor at 37° for 72 hours. 25 μL of 3-(4,5-dimethyl-2-thiazolyl)-2,5-diphenyl-2H-tetrazolium bromide (MTT) dissolved in PBS (2 mg/mL) was added to each cell culture 4 hours before the end of culture. After completion of the reaction, the plates were centrifuged, the media were discarded, and 100 μL of formazan was added and dissolved in dimethyl sulfoxide (DMSO). Finally, the absorbance of the developed plates was measured at 540 nm. The cell viability was expressed as % concentration in comparison with the vehicle control group.

First: Cc1ccc(Nc2nc(N(C)CC3OCCO3)ccc2[N+](=O)[O-])cc1 [Compound 4, 2-(4-methylphenylamino)-6-[(N-[1,3]-dioxolan-2-ylmethyl)methylamino]-3-nitropyridine]
Second: CN(CC1OCCO1)c1ccc([N+](=O)[O-])c(Nc2ccc(C(C)(C)C)cc2)n1 [Compound 33, 2-[4-(t-butyl)phenylamino]-6-[(N-[1,3]-dioxolan-2-ylmethyl)methylamino]-3-nitropyridine]
The “Cell viability (%) Calvarial cell” value of the first is higher: 104% for the first, 93% for the second.

First: Cc1ccc(Nc2nc(NCc3ccncc3)ccc2[N+](=O)[O-])cc1 [Compound 8]
Second: Nc1ccc(Nc2nc(NCCN3CCOCC3)ccc2[N+](=O)[O-])cc1 [Compound 68, 2-[4-(amino)phenylamino]-6-[2-(morpholin-1-yl)ethylamino]-3-nitropyridine]
The “Cell viability (%) Calvarial cell” value of the first is lower: 92% for the first, 103% for the second.

First: COc1ccc(Nc2nc(N(C)CCO)ccc2[N+](=O)[O-])cc1 [Compound 24, 2-(4-methoxyphenylamino)-6-[(N-methyl-2-hydroxy)ethylamino]-3-nitropyridine]
Second: CCN(CCO)c1ccc([N+](=O)[O-])c(Nc2ccc(-c3csc(C4CCCCC4)n3)cc2)n1 [Compound 156, 2-[4-(2-cyclohexylthiazol-4-yl)phenylamino]-6-[(N-ethyl-2-hydroxyethyl)amino]-3-nitropyridine]
The “Cell viability (%) Calvarial cell” value of the first is lower: 99% for the first, 108% for the second.

Going from `CC1=NCCN1c1ccc([N+](=O)[O-])c(Nc2ccc(C#N)cc2)n1` [Compound 48, 2-(4-cyanophenylamino)-6-[(2-methyl-4,5-dihydro)imidazol-1-yl]-3-nitropyridine] to `Nc1ccc(Nc2nc(NCCCN3CCOCC3)ccc2[N+](=O)[O-])cc1` [Compound 69, 2-[4-(amino)phenylamino]-6-[3-(morpholin-1-yl)propylamino]-3-nitropyridine], the “Cell viability (%) Calvarial cell” value rises from 103% to 110%.

Compared with `Nc1cccc(Nc2nc(NCCN3CCOCC3)ccc2[N+](=O)[O-])c1` [Compound 83, 2-[3-(amino)phenylamino]-6-[2-(morpholin-1-yl)ethylamino]-3-nitropyridine], `Nc1cccc(Nc2nc(NCCCN3CCOCC3)ccc2[N+](=O)[O-])c1` [Compound 84, 2-[3-(amino)phenylamino]-6-[3-(morpholin-1-yl)propylamino]-3-nitropyridine] is higher in “Cell viability (%) Calvarial cell” value: 99% for the first, 108% for the second.

Going from `CN(CC1OCCO1)c1ccc([N+](=O)[O-])c(Nc2ccc(N3CCOCC3)cc2)n1` [Compound 111, 2-(4-morpholinophenylamino)-6-[(N-[1,3]-dioxolan-2-ylmethyl)methylamino]-3-nitropyridine] to `CN(CC1OCCO1)c1ccc([N+](=O)[O-])c(Nc2ccc(F)c(F)c2)n1` [Compound 127, 2-[(3,4-difluoro)phenylamino]-6-[(N-[1,3]-dioxolan-2-ylmethyl)-methylamino]-3-nitropyridine], the “Cell viability (%) Calvarial cell” value rises from 95% to 99%.

First: CN1CCN(c2ccc([N+](=O)[O-])c(Nc3ccc(-c4csc(C5CCCCC5)n4)cc3)n2)CC1 [Compound 159]
Second: CCN(CC)c1ccc(Nc2nc(NC)ccc2[N+](=O)[O-])cc1F [Compound 175, 2-[(3-fluoro-4-diethylamino)phenylamino]-6-(methylamino)-3-nitropyridine]
The “Cell viability (%) Calvarial cell” value of the first is lower: 100% for the first, 104% for the second.

`CCN(CC)c1ccc(Nc2nc(NC(C)C)ccc2[N+](=O)[O-])cc1F` [Compound 176, 2-[(3-fluoro-4-diethylamino)phenylamino]-6-(isopropylamino)-3-nitropyridine] and `CCN(CC)c1ccc(Nc2nc(NC(C)(C)C)ccc2[N+](=O)[O-])cc1F` [Compound 178, 2-[(3-fluoro-4-diethylamino)phenylamino]-6-(t-butylamino)-3-nitropyridine] are the same in “Cell viability (%) Calvarial cell” value: 109% for the first, 109% for the second.
